Test results published in ChEMBL document CHEMBL5154935, “Design, Synthesis, and Biological Evaluation of Novel Evodiamine Derivatives as Potential Antihepatocellular Carcinoma Agents” (J Med Chem, 2022).
Activity calls are given as the source filed them. The rule behind the calls is not given here.

Columns and labels:
[1] = test system: SK-HEP1; assay: Antiproliferative activity against human SK-Hep1 cells assessed as inhibition of cell viability by MTT assay; assay type: functional, cell-based; settings: time 24-72 hrs, TDE = time-dependent effect
[2] = test system: SK-HEP1; assay: Induction of apoptosis in human SK-Hep1 cells assessed as early apoptotic cells at 10 nM incubated for 24 hrs by annexin V-FITC/PI staining flow cytometry (reference value: 0.30 %); assay type: functional
[3] = test system: Huh-7; assay: Induction of apoptosis in human Huh-7 cells assessed as late apoptotic cells at 10 nM incubated for 24 hrs by annexin V-FITC/PI staining flow cytometry (reference value: 1.33 %); assay type: functional
[4] = Induction of apoptosis in rat HSC-T6 cells assessed as viable cells at 80 nM pretreated with TGFbeta-1 for 1 day followed by compound addition and measured after 24 hrs by flow cytometry (reference value: 97.5 %); assay type: functional; settings: read-out: Activity
[5] = test system: Huh-7; assay: Induction of apoptosis in human Huh-7 cells assessed as cytoskeleton disintegration incubated for 24 hrs by Giemsa staining based microscopy; assay type: functional, cell-based; settings: dose 12-60 nM, DDE = dose-dependent effect
[6] = test system: SK-HEP1; assay: Induction of cell cycle arrest in human SK-Hep1 cells assessed as accumulation at G2 phase at 80 nM treated for 24 hrs by PI staining based flow cytometry (reference value: 16.55 %); assay type: functional
[7] = test system: SK-HEP1; assay: Induction of apoptosis in human SK-Hep1 cells assessed as viable cells at 10 nM incubated for 24 hrs by annexin V-FITC/PI staining flow cytometry (reference value: 97.8 %); assay type: functional; settings: read-out: Activity
[8] = test system: HepG2; assay: Antiproliferative activity against human HepG2 cells treated for 72 hrs by MTT assay; assay type: functional, cell-based; settings: HepG2, 72 h
[9] = test system: SK-HEP1; assay: Induction of apoptosis in human SK-Hep1 cells assessed as viable cells at 80 nM incubated for 24 hrs by annexin V-FITC/PI staining flow cytometry (reference value: 97.8 %); assay type: functional; settings: read-out: Activity
[10] = test system: SK-HEP1; assay: Induction of apoptosis in human SK-Hep1 cells assessed as late apoptotic cells at 40 nM incubated for 24 hrs by annexin V-FITC/PI staining flow cytometry (reference value: 1.13 %); assay type: functional
[11] = test system: Huh-7; assay: Induction of cell cycle arrest in human Huh-7 cells assessed as accumulation at S phase at 80 nM treated for 24 hrs by PI staining based flow cytometry (reference value: 23.33 %); assay type: functional
[12] = biological target: T1, DNA topoisomerase 1 (Homo sapiens) (UniProt P11387); assay: Inhibition of Top1 (unknown origin) assessed as inhibition of relaxation of supercoiled pBR322 plasmid DNA at 12.5 uM incubated for 25 mins by ethidium bromide staining based agarose gel electrophoresis analysis relative to control
T1 sequence (whole entry): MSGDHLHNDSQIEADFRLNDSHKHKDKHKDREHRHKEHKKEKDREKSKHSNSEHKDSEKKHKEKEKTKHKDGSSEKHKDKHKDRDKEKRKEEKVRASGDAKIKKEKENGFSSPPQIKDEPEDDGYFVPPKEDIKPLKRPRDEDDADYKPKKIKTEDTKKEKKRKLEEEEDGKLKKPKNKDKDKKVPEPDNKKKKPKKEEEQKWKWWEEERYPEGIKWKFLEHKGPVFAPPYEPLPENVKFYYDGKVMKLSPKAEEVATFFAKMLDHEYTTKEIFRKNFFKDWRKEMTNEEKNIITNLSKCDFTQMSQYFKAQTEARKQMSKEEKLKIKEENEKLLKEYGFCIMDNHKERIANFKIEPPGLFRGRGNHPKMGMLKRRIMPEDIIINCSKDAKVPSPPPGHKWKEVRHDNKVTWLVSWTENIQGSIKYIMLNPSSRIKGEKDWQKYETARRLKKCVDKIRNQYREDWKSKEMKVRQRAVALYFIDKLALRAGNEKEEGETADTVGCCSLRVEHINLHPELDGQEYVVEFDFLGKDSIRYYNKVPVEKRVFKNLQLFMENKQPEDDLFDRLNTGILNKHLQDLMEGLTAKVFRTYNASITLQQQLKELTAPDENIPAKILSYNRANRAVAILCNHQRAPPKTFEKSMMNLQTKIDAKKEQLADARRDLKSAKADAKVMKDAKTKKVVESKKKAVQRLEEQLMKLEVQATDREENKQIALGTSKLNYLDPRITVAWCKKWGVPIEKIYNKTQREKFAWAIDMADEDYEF

[13] = test system: Huh-7; assay: Induction of apoptosis in human Huh-7 cells assessed as chromatin agglutination incubated for 24 hrs by Giemsa staining based microscopy; assay type: functional, cell-based; settings: dose 12-60 nM, DDE = dose-dependent effect
[14] = test system: SK-HEP1; assay: Induction of cell cycle arrest in human SK-Hep1 cells assessed as accumulation at G2 phase at 40 nM treated for 24 hrs by PI staining based flow cytometry (reference value: 16.55 %); assay type: functional
[15] = test system: HSC-T6; assay: Suppression of TGF-beta-1-stimulated rat HSC-T6 cells activation assessed as reduction in Col-1 levels at 10 to 80 nM preincubated with TGFbeta-1 followed by compound addition and measured after 24 to 48 hrs by ELISA; assay type: functional, cell-based; settings: dose 10-80 nM, time 24-48 hrs
[16] = biological target: DNA topoisomerase 2-alpha (Homo sapiens) (UniProt P11388); assay: Inhibition of human Top2-alpha expressed in baculovirus assessed as inhibition of relaxation of supercoiled pBR322 plasmid DNA at 100 uM incubated for 30 mins in presence of ATP by ethidium bromide staining based agarose gel electrophoresis analysis relative to control
Chain of DNA topoisomerase 2-alpha (Homo sapiens) (P11388 whole entry): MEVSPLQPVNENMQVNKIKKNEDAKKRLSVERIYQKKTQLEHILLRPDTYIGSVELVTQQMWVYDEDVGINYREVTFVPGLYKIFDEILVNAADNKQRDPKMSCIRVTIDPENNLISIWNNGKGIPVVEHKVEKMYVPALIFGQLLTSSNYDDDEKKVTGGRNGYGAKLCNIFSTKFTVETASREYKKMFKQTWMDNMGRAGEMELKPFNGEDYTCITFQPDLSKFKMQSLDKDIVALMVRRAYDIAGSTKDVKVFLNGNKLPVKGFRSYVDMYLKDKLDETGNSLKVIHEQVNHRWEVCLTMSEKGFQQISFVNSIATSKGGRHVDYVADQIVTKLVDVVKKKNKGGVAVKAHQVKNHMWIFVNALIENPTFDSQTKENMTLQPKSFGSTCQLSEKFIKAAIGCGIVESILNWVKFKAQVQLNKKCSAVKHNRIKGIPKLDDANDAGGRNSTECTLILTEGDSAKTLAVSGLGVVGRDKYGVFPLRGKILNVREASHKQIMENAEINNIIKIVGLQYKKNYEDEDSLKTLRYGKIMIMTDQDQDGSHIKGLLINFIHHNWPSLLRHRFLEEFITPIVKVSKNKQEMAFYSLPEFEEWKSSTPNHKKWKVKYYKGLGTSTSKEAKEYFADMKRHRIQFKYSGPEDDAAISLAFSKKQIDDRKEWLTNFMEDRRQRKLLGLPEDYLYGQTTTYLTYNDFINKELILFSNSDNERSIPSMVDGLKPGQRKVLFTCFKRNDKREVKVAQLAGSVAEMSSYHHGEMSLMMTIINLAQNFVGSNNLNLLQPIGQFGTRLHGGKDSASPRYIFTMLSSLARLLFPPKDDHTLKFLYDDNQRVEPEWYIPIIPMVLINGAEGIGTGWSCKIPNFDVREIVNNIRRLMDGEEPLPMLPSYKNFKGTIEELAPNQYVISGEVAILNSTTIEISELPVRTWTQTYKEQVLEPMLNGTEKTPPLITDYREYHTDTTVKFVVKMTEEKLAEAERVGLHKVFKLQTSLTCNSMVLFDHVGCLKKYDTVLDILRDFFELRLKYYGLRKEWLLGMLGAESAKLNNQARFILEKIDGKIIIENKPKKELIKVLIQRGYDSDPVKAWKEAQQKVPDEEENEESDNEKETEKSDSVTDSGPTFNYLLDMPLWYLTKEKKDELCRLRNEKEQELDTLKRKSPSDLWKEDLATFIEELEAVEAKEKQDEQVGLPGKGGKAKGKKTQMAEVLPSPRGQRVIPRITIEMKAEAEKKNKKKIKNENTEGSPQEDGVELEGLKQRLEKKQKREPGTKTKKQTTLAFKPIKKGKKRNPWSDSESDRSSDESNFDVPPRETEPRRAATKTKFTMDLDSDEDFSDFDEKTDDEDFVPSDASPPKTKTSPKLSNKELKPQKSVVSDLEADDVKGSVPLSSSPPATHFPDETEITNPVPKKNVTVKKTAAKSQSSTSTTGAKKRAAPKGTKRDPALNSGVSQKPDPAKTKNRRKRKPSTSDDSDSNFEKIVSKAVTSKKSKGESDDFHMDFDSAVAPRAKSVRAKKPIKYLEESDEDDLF

[17] = Induction of apoptosis in rat HSC-T6 cells assessed as late apoptotic cells at 10 nM pretreated with TGFbeta-1 for 1 day followed by compound addition and measured after 24 hrs by flow cytometry (reference value: 1.76 %); assay type: functional
[18] = test system: SK-HEP1; assay: Induction of apoptosis in human SK-Hep1 cells assessed as necrotic cells at 40 nM incubated for 24 hrs by annexin V-FITC/PI staining flow cytometry (reference value: 0.73 %); assay type: functional
[19] = test system: Huh-7; assay: Induction of apoptosis in human Huh-7 cells assessed as necrotic cells at 80 nM incubated for 24 hrs by annexin V-FITC/PI staining flow cytometry (reference value: 1.08 %); assay type: functional
[20] = test system: Huh-7; assay: Induction of cell cycle arrest in human Huh-7 cells assessed as accumulation at G1 phase at 10 nM treated for 24 hrs by PI staining based flow cytometry (reference value: 60.77 %); assay type: functional
[21] = test system: Huh-7; assay: Induction of apoptosis in human Huh-7 cells assessed as late apoptotic cells at 80 nM incubated for 24 hrs by annexin V-FITC/PI staining flow cytometry (reference value: 1.33 %); assay type: functional
[22] = test system: HCC; assay: Inhibition of cell proliferation of human HCC cells treated for 24 hrs by EdU staining based fluorescence microscopy assay; assay type: functional; settings: dose 3-18 nM, DDE = dose-dependent effect
[23] = test system: SK-HEP1; assay: Induction of apoptosis in human SK-Hep1 cells assessed as cell membrane permeability by measuring blue fluorescence incubated for 24 hrs by Hoechst staining based microscopy; assay type: functional; settings: dose 12-60 nM, DDE = dose-dependent effect
[24] = Induction of apoptosis in rat HSC-T6 cells assessed as viable cells at 40 nM pretreated with TGFbeta-1 for 1 day followed by compound addition and measured after 24 hrs by flow cytometry (reference value: 97.5 %); assay type: functional; settings: read-out: Activity
[25] = test system: SK-HEP1; assay: Induction of apoptosis in human SK-Hep1 cells assessed as cytoskeleton disintegration incubated for 24 hrs by Giemsa staining based microscopy; assay type: functional, cell-based; settings: dose 12-60 nM, DDE = dose-dependent effect

SMILES | Activity [1] | Activity [2] | Activity [3] | viability at 0.08 µM [4] | Activity [5] | Activity [6] | viability at 0.01 µM [7] | IC50 [8] | viability at 0.08 µM [9] | Activity [10] | Activity [11] | inhibition [12] | Activity [13] | Activity [14] | inhibition [15] | inhibition [16] | Activity [17] | Activity [18] | Activity [19] | Activity [20] | further results
CC(=O)Oc1ccc2[nH]c3c(c2c1)CCN1C(=O)c2cc(F)cc(F)c2N(c2cccc(F)c2)C31 (stereo not given) | Tde | 5.25% | 4.02% | 41.7% | Dde | 76.35% | 86.7% | 180 nM | 84% | 13.4% | 8.43% | 56.1% | Dde | 70.47% | Active | 63.7% | 8.67% | 2.44% | 9.88% | 51.9% | Activity [21]: 29.4%; inhibition [22]: Dde; Activity [23]: Dde; viability at 0.04 µM [24]: 85.6%; Activity [25]: Dde
O=C1c2cc(F)cc(F)c2N(c2cccc(F)c2)C2c3[nH]c4ccc(O)cc4c3CCN12 (stereo not given) | Tde | 0.91% | 4.61% | 83.8% | Dde | 83.92% | 92.9% | 90 nM | 73.4% | 13.6% | 10.85% | 43.9% | Dde | 74.07% | Active | 67% | 5.1% | 2.92% | 9.82% | 46.78% | Activity [21]: 30%; inhibition [22]: Dde; Activity [23]: Dde; viability at 0.04 µM [24]: 98.3%; Activity [25]: Dde
